Measured values: US20070087376A1, “Splice variants of pre-mRNA transcripts as biomarkers in idiopathic neurodegenerative diseases” (priority 2004, published 2007)

Assays:
[1] = tested on: FosB splice variants (FosB and ΔFosB mRNA); experiment: FosB splice variant mRNA levels in blood of MPTP-treated (Parkinsonian) mice, RT-PCR; type: in vivo, mouse; conditions: vs vehicle
Text: (§1) Mice were then euthanized either at 3 days or 3 weeks after treatment. Two time periods were selected in order to characterizing splicing events in the blood over time. Controls for the acute group include mice treated with saline and, for the chronic experiments, mice treated with probenecid or saline.
(§2) Blood specimens for assaying RNA from the mice described in Example 1 above were obtained as follows. Mice were sacrificed by cervical dislocation and the heart lacerated to release the blood. Approximately 50 μl of 0.05 M EDTA, pH 8.0 was added to the chest cavity to prevent the blood from coagulating. Blood was collected in a sterile 1 ml syringe that was initially rinsed in 0.50 M EDTA pH 8.0.
(§3) RNA from blood samples obtained as described in Example 2 was separated on a 1.8% agarose gel and stained with 5 μl of ethidium bromide (10 mg/ml stock) diluted into 10 ml of a TAE buffer (pH 8.5 40 mM Tris.acetate, 2 mM Na2EDTA.2H2O. After staining, the RNA was visualized on a UV light box and the 18S RNA band was quantified. The image was captured using a Kodak EDAS290 system (Kodak, Rochester, N.Y.) and the Kodak 1D Image Analysis software (Kodak, Rochester, N.Y.) was used to quantify. Other similar cameras and analysis softwares will also work. […]

[2] = tested on: RGS9 splice variants (RGS9-1 and RGS9-2 mRNA); experiment: RGS9 splice variant mRNA levels in blood of MPTP-treated mice, RT-PCR; type: in vivo, mouse
Text: as §1, §2, §3

[3] = tested on: AChE splice variants (AChE-R and AChE-S mRNA); experiment: AChE splice variant mRNA levels in blood of MPTP-treated mice, RT-PCR; type: in vivo, mouse
Text: as §1, §2
(§4) RNA from blood samples obtained as described in Example 2 was separated on a 1.8% agarose gel and stained with 5 μl of ethidium bromide (10 mg/ml stock) diluted into 10 ml of a TAE buffer (pH 8.5 40 mM Tris.acetate, 2 mM Na2EDTA.2H2O. After staining, the RNA was visualized on a UV light box and the 18S RNA band was quantified. The image was captured using a Kodak EDAS290 system (Kodak, Rochester, N.Y.) and the Kodak 1D Image Analysis software (Kodak, Rochester, N.Y.) was used to quantify. Other similar cameras and analysis softwares will also work.
(§5) Splice variant mRNA was assayed using reverse transcriptase polymerase chain reactions (RT-PCR) as described in U.S. patent application Ser. No.: 11/215,842. PCR conditions for amplification of FosB, RGS9, AchE, Ania6 and NDUFS4 are the same as disclosed in U.S. patent application Ser. No.: 11/215,842 except different kits were used for FosB and RGS9 compared to the other 3 transcripts.
• 1. 95° C. 8 minutes • 2. 95° C. 30 seconds • 3. 57° C. 30 seconds • 4. 72° C. 30 seconds • 5. Repeat from step 2 35 times • 6. 72° C. 10 minutes RGS9 (SYBR green, Applied Biosystems, Foster City, Calif.) • 1. 95° C. 8 minutes • 2. 95° C. 30 seconds • 3. 54° C. 30 seconds • 4. 72° C. 30 seconds • 5. Repeat from step 2 35 times • 6. 72° C. 10 minutes AChE (go Taq Green, Promega, Madison, Wis.) • 1. 95° C. 5 minutes • 2. 95° C. 30 seconds • 3. 61° C. 30 seconds • 4. 72° C. 30 seconds • 5. Repeat from step 2 30 times • 6. 72° C. 5 minutes NDUFS4 (go Taq Green, Promega, Madison, Wis.) • 1. 95° C. 5 minutes • 2. 95° C. 30 seconds • 3. 64° C. 30 seconds • 4. 72° C. 30 seconds • 5. Repeat from step 2 30 times • 6. 72° C. 5 minutes Ania (go Taq Green, Promega, Madison, Wis. • 1. 95° C. 5 minutes • 2. 95° C. 30 seconds • 3. 57° C. 30 seconds • 4. 72° C. 30 seconds • 5. Repeat from step 2 35 times • 6. 72° C. 5 minutes Primers used in the PCR Assays: […]
We investigated whether the amount of the splice variants of acetylcholinesterase (AChE) changed after MPTP toxin treatment. AChE hydrolyzes acetylcholine (ACh) and thereby functions to terminate Ach-mediated neurotransmission. In many neuropathologies, the characteristics of AChE are modified in the central nervous system. We looked at the AChE-S and ACHE-R splice variants. The AChE-S mRNA produces the canonical synaptic tetrameric form of the enzyme. AChE-S is formed by skipping exon 5 such that the final mRNA is composed of exons 1-4 and exon 6 (FIG. 5). The protein produced from this transcript has a cysteine-containing carboxyl-terminus that allows for the formation of the tetramer. AChE-R, produces a read-through transcript in which a downstream splice donor is spliced to the intron 4 3′ splice site such that exon 5 is included in the mRNA (FIG. 6). This produces a protein with a different carboxyl-terminus than the synaptic form. […]

[4] = tested on: Ania6 splice variants (Ania6 and Ania6a mRNA); experiment: Ania6 splice variant mRNA levels in blood of MPTP-treated mice, RT-PCR; type: in vivo, mouse; conditions: chronic MPTP treatment
Text: as §1, §2, §3

[5] = tested on: NDUFS4 splice variants (NDUFS4 and NDUFS4-SV3 mRNA); experiment: NDUFS4 splice variant mRNA levels in MPTP-treated mice, RT-PCR; type: in vivo, mouse; conditions: chronic MPTP treatment
Text: as §1, §2, §4, §5
• 1. 95° C. 8 minutes • 2. 95° C. 30 seconds • 3. 57° C. 30 seconds • 4. 72° C. 30 seconds • 5. Repeat from step 2 35 times • 6. 72° C. 10 minutes RGS9 (SYBR green, Applied Biosystems, Foster City, Calif.) • 1. 95° C. 8 minutes • 2. 95° C. 30 seconds • 3. 54° C. 30 seconds • 4. 72° C. 30 seconds • 5. Repeat from step 2 35 times • 6. 72° C. 10 minutes AChE (go Taq Green, Promega, Madison, Wis.) • 1. 95° C. 5 minutes • 2. 95° C. 30 seconds • 3. 61° C. 30 seconds • 4. 72° C. […]

[6] = tested on: transcripts that have splice variants; conditions: mptp study, cited from earlier work
[7] = chronic MPTP treatment, 3 days and 3 weeks after

SMILES: CN1CC=C(c2ccccc2)CC1 [MPTP, 1-methyl-4-phenyl-1,2,3,6-tetrahydropyridine]
- FosB mRNA/18S RNA ([1]; acute MPTP treatment (20 mg/kg, 4 times, every 2 hours), euthanized 3 days later): decreases
- ΔFosB mRNA/18S RNA ([1]; chronic MPTP (25 mg/kg s.c.) and probenecid, twice each week for 5 weeks): decreases
- RGS9-2 mRNA/18S RNA ([2]; acute MPTP treatment): decreases
- RGS9-2 mRNA/RGS9-1 [2, 7]: decreases after chronic MPTP treatment and remains lower for 3 weeks
- AChE-R mRNA/18S RNA ([3]; acute MPTP treatment): increases
- AChE-R mRNA/AChE-S mRNA ([3]; acute MPTP treatment): increases
- AChE-R mRNA/AChE-S mRNA ([3]; chronic MPTP treatment): decreases
- AChE-S mRNA/18S RNA ([3]; chronic MPTP treatment): increases
- AChE-R mRNA/18S RNA [3, 7]: decreases and remains lower for 3 weeks
- Ania6a mRNA/18S RNA [4]: increases
- Ania6 mRNA/18S RNA ([4]; 3 days and 3 weeks after): decreases after chronic MPTP treatment and remains lower for 3 weeks
- NDUFS4 mRNA/18S RNA [5]: decreases
- NDUFS4-SV3 mRNA/18S RNA ([5]; 3 days and 3 weeks after): decreases after chronic MPTP treatment and remains lower for 3 weeks
- NDUFS4-SV3 mRNA/NDUFS4 mRNA ([5]; 3 days and 3 weeks after): decreases after chronic MPTP treatment and remains lower for 3 weeks
- Change of BAX M, isoform-a transcript ([6]; function Apoptosis): Up
- Change of Cyclin B2 transcript ([6]; function Cell cycle): Down
- Change of Alpha-synuclein transcript ([6]; function PD-associated): Up
- Change of Ach N receptor transcript ([6]; function Receptors): Up
- Change of IL-1 recept II transcript ([6]; function Receptors): Up
- Change of IL-2 rp-G transcript ([6]; function Receptors): Up
- Change of IL-10 transcript ([6]; function Receptors): Up
- Change of Gtase transcript ([6]; function Stress): Down
